Entries after “also recorded” stand apart in the source; their conditions may differ. Like-named read-outs stand apart in the source and are kept apart here.
Columns and labels:
WI-38 cells [1] = assay: CdCl2 (cadmium) resistance assay; assay type: cell-based, human; details: YES/NO; for Assay 2: Cadmium-resistant: * indicates partial
Procedure: (§1) For many stress conditions tested previously, one significant correlation to longevity is the cellular resistance to H2O2 or CdCl2. Applicants then tested these small molecules, at five different final concentrations (0.25 μM to 20 μM), for cadmium and MMS resistance in WI-38 cells.
(§2) The setups on 384-well plates and incubation times were the same as for H2O2 until the time of incubation with the stressors, which was 12 hours for both cadmium and MMS assays. Applicants tested several conditions, including conditions used to assay fibroblasts from long-lived animals (Salmon et al., 2005). These conditions produced better results with the positive controls (KEAP1 and AKT1 siRNAs) in the MMS assay. Thus, for MMS, the cells were shifted from growth media—OptiMEM+10% FBS, to DMEM (Gibco)+2% BSA (no serum) just before adding small molecules, which occurred 24 hours before MMS addition.
(§3) Isolated small molecules were tested for MMS and cadmium resistance twice in two independent assays. Each small molecule was analyzed at five different concentrations (0.25 μM to 20 μM final concentration), with technical triplicates for each dose. Data were analyzed using a global variance t-test.

WI-38 cells [2] = assay: MMS resistance assay; assay type: cell-based, human; details: YES/NO; for Assay 3: MMS-resistant: * indicates partial; for Assay 5: Triple resistant: H2O2, cadmium and MMS
Procedure: as §1, §2, §3

FOXO3 = assay: qPCR analysis of FOXO3-regulated genes; assay type: cell-based, human; details: Homo sapiens, 24 h, Assay 10(m), at 10 uM, qPCR
Procedure: (§4) For qPCR analysis, WI-38 cells were treated with small molecules (at 10 μM) (biological quadruplicates) for 24 hrs and processed for RNA isolation and reverse transcription (RT) with the Cells-to-Ct Kit (Life Technologies), following manufacturer's instructions. RT products were diluted with H2O and used for qPCR analysis on an ABI 7300 system (Life Technologies) (technical triplicates). Relative expression levels of target genes were normalized to the genes B2M, PPIA and GAPDH. To knock down the expression of FOXO3 or NRF2, WI-38 cells were transfected, using the RNAiMAX reagents (Life Technologies), with siRNA oligos (at 10 nM final concentration, 10 ml culture medium) for FOXO3 (Life Technologies) or NRF2 (Integrated DNA Technologies) on 10-cm petri dishes for 36 hrs, and then detached and aliquoted onto 96-well (for qPCR analysis) or 384-well plates (for H2O2-stress treatment). ˜24 hrs later, small molecules were introduced and incubated with cells for 24 hrs. Cells were then either processed with the Cells-to-Ct Kit to prepare RT products for qPCR analysis or subjected to H2O2 (700 μM) for 3 hrs and assayed for viability. The knockdown efficiency of FOXO3 or NRF2 was checked at 36 hrs post-transfection and at the end as well.
(§5) For qPCR analysis, WI-38 cells were treated with small molecules (at 10 μM) (biological quadruplicate) for 24 hrs and processed for RNA isolation and reverse transcription (RT) with the Cells-to-Ct Kit (Life Technologies), following manufacturer's instructions. RT products were diluted with H2O and used for qPCR analysis on a LightCycler 480 system (Roche) (technical triplicates). Relative expression levels of target genes were normalized to the genes B2M, PPIA and GAPDH. To knock down the expression of FOXO3 or NRF2, WI-38 cells were transfected with siRNA oligos (at 10 nM final concentration) for FOXO3 (Life Technologies) or NRF2 on 10-cm petri dish for 36 hrs, and then detached and aliquoted onto 96-well plates. ˜24 hrs later, small molecules were introduced and incubated with cells for 24 hrs. Cells were then processed with the Cells-to-Ct Kit to prepare RT products for qPCR analysis. The knockdown efficiency of FOXO3 or NRF2 was checked at 36 hrs post-transfection and at the end as well.
Many perturbations that increase lifespan and stress resistance in animals do so in a FOXO-dependent fashion (Kenyon, 2010c). Humans have several FOXO genes, but FOXO3, which promotes stress resistance in mammalian cell culture (Kops et al., 2002; Nemoto and Finkel, 2002; Tran et al., 2003), is the one that has been linked to exceptional longevity in humans (Anselmi et al., 2009; Flachsbart et al., 2009; Li et al., 2009; Pawlikowska et al., 2009; Soerensen et al., 2010; Willcox et al., 2008). FOXO1, in contrast, appears to be responsible for some symptoms of diabetes in mouse models (Cheng and White, 2011). For this reason, applicants have focused on analyzing potential ability of our small molecules to activate FOXO3. […] Another 4 molecules (Gr-7A, Gr-7C, O12 and O23) could induce robust expression (greater than 1.5-fold) of at least 2 FOXO3 target genes.

NRF2 = assay: qPCR analysis of NRF2-regulated genes; assay type: cell-based, human; details: Homo sapiens, 24 h, Assay 12(o), at 10 uM, qPCR
Procedure: as §4, §5
NRF2/SKN-1, the oxidative stress and xenobiotic phase 2 detoxification protein, can extend animal lifespan (Sykiotis and Bohmann, 2008; Tullet et al., 2008). Applicants analyzed these small molecules for their ability to increase the expression of NRF2-regulated genes, including HMOX1 (heme oxygenase (decycling) 1; anti-oxidant), NQO1 (NAD(P)H dehydrogenase, quinone 1; phase 2 detoxification enzyme), GCLC (glutamate-cysteine ligase, catalytic) and GSTM1 (glutathionine S transferase) (Hur and Gray, 2011; Suzuki et al., 2013).

C. elegans = C. elegans lifespan assays (liquid and plate); assay type: in vivo, Caenorhabditis elegans; details: for ILS at 66 µM: Caenorhabditis elegans
[3] = system: HTB-178 lung tumor cells (EGFR+, PIK3CA+, RB1−, TP53−); assay: Killing effects on HTB-178 tumor cells; assay type: cell-based, human; details: Assay 1(y), at 10 uM
WI-38 cells [4] = details: for Assay 1: H2O2-resistant: YES/NO, if NO, possibly due to repeated freezing/thawing of stocks; for EC50: read-out: Est. ED50, dose response 0.6-20 μM, H2O2-resistance
human PARP1 = target: T1, human PARP1 (Homo sapiens, UniProt P09874); assay: PARP inhibitor assay (HT Fluorescent Homogeneous PARP Inhibition Assay Kit); assay type: biochemical; details: 10 μM, in vitro
T1 construct: purchased Trevigen
Procedure: (§6) The assay was performed with the HT Fluorescent Homogeneous PARP Inhibition Assay Kit (Trevigen), following manufacturer's instructions. Briefly, nicotinamide adenine dinucleotide, human PARP1 and activated-DNA solution was added onto a 96-well plate. 54 repurchased small molecules, at 10 μM final concentration, were introduced onto the 96-well assay plate and incubated in a humid chamber at room temperature for 30 min in dark. Cycling mixture, with resazurin and cycling enzyme diaphorase, was then added and incubated further for 1 hr in dark. Reaction was terminated by adding the stopping buffer.
as §6, with “(Trevegen),” for “(Trevigen),”, “stopped” for “terminated”

[5] = system: human dermal fibroblast (HDF) primary cells; assay: H2O2-resistance in primary human dermal fibroblasts; assay type: cell-based; details: YES/NO
[6] = system: PC12 cells expressing poly(Q)103-Htt-EGFP; assay: Poly(Q) toxicity & viability analysis (cellular model of Huntington's disease); assay type: cell-based, rat; details: 10 uM; YES/NO
Procedure: Viability assays were performed as described before (Aiken et al., 2004). PC12 cells that stably express the inducible poly(Q)103-Htt-EGFP were grown in culture. […] Cell viability was analyzed 48 hrs later by measuring ATP content with CellTiter-Glo.
Toxic protein aggregation is a key feature of many age-related neurodegenerative diseases, including Alzheimer's and Huntington's disease (Caughey and Lansbury, 2003; Ross and Poirier, 2004). A number of animal models (Phillips et al., 2009) and cell models (Schlachetzki et al., 2013) have been established to study these diseases. For this purpose, PC12 rat pheochromocytoma cells display neuronal features and produce neurotransmitters and have been used extensively to study neuronal phenotypes, including synaptic transmission and neurological diseases. […] In this model, induced expression of poly(Q)103-Htt-EGFP could lead to the formation of aggregates and exert substantial toxicity in cells.

[7] = read-out: Induction of FOXO3-regulated genes: TXNIP normalized fold-change
[8] = read-out: Induction of NRF2-regulated genes: HMOX1 normalized fold-change
[9] = read-out: Induction of NRF2-regulated genes: NQO1 normalized fold-change
[10] = Assay 2(z), 1.0 × 10^9 bacteria/ml, wild type + FuDR (2012 July), read-out: Lifespan assay in liquid
[11] = Assay 3(aa), 2.5 × 10^9 bacteria/ml, wild type + FuDR, read-out: Lifespan assay in liquid
[12] = Assay 4(ab), 2.0 × 10^10 bacteria/ml, CF512 worms, no FuDR, read-out: Lifespan assay on plates
[13] = Assay 5(ac), 1.0 × 10^11 bacteria/ml, CF512 worms, no FuDR, read-out: Lifespan assay on plates
[14] = Assay 6(ad), 2.0 × 10^10 bacteria/ml, CF512 worms, no FuDR, read-out: Lifespan assay on plates
[15] = Assay 7(ae), 1.0 × 10^11 bacteria/ml, CF512 worms, no FuDR, read-out: Lifespan assay on plates

T1 sequence (P09874 whole entry): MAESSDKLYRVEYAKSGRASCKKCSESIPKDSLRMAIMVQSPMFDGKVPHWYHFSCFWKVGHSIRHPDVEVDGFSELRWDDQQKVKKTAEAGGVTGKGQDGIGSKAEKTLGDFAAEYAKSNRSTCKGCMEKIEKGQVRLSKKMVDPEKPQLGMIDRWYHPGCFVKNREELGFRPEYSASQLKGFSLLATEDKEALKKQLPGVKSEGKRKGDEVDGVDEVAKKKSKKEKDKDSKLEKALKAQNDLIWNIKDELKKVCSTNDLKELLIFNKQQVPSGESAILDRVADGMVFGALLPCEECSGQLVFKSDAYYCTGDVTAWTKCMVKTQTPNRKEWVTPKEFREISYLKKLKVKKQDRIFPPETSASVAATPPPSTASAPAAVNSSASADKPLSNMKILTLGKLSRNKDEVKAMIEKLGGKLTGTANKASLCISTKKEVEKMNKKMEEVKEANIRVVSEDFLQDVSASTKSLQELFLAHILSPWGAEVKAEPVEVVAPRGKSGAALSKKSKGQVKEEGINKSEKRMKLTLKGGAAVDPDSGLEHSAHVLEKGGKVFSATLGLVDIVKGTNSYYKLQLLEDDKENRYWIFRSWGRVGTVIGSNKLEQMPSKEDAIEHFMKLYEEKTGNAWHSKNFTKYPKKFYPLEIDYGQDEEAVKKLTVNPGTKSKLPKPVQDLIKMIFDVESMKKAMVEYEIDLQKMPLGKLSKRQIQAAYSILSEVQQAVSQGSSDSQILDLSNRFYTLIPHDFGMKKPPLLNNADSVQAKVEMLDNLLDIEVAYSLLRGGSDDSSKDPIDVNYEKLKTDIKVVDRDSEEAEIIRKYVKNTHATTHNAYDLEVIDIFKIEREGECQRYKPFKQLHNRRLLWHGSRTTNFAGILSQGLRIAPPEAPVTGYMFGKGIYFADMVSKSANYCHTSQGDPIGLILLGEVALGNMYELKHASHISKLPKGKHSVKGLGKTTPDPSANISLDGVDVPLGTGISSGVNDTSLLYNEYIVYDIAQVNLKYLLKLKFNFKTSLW

Row | SMILES | Assay 4: H2O2- & Cd-resistant (WI-38 cells [1]) | Assay 2: Cadmium-resistant (WI-38 cells [1]) | Assay 3: MMS-resistant (WI-38 cells [2]) | Assay 5: Triple resistant (WI-38 cells [2]) | ILS at 66 µM (C. elegans; [10]) | ILS at 66 µM (C. elegans; [11]) | ILS at 66 µM (C. elegans; [12]) | Assay 1: H2O2-resistant (WI-38 cells [4]) | EC50 (WI-38 cells [4]) | Inhibition of PARP1 (human PARP1) | Assay 6: H2O2-resistant, at 10 uM, human dermal fibroblast (HDF) primary cells [5] | ILS at 66 µM (C. elegans; [13]) | ILS at 66 µM (C. elegans; [14]) | ILS at 66 µM (C. elegans; [15]) | other results
1 | COc1cc(-c2nc(C(N)=O)c3nc(O)n(-c4cccc(C)c4)c3n2)cc(Br)c1O [O9] | YES | YES | YES | YES | 6.6% | 1.3% | -0.3% | YES | 14.2 µM | – | – | – | – | – | fold induction at 10 µM (FOXO3; read-out: Induction of FOXO3-regulated genes: SESN1 normalized fold-change): 1.19; fold induction at 10 µM (FOXO3; read-out: Induction of FOXO3-regulated genes: SOD2 normalized fold-change): 1.15; fold induction at 10 µM (FOXO3; [7]): 1.72; fold induction at 10 µM (NRF2; [8]): 1.97; fold induction at 10 µM (NRF2; [9]): 1.32; Potential killing effects on HTB-178 tumor cells, 1st [3]: YES;; Potential killing effects on HTB-178 tumor cells, 2nd [3]: YES.
2 | O=C1NC(=O)c2cccc3cccc1c23 [O7] | YES | YES | YES | YES | 19.7% | 26% | 33.7% | YES | 5.5 µM | confirmed as PARP inhibitors | YES | 10.2% | 5.8% | -10.5% | Assay 20: Huntington's poly-Q toxicity attenuation [6]: YES; Lifespan extension of C. elegans (C. elegans; across independent trials): 10%-34%; Trials with lifespan extension (C. elegans; positive of total trials): 4 of 4
3 | CC(Nc1cc(C)ccn1)=C(C#N)C#N [O16] | – | – | – | – | 16.8% | 11.4% | 19.7% | – | 20 µM | – | YES | 9.8% | 9.9% | 12.1% | Potential killing effects on HTB-178 tumor cells, 1st [3]: YES;; Potential killing effects on HTB-178 tumor cells, 2nd [3]: YES.
4 | Cc1sc2nc(SCC(=O)N3CCOCC3)nc(O)c2c1C [O3] | YES | YES | YES | YES | 14.1% | 14.8% | 15.9% | YES | 20 µM | inhibitors of PARP1; also recorded: PARP inhibitors | YES | 12% | 8.7% | 1.4% | fold induction at 10 µM (NRF2; [9]): 1.21
5 | CNS(=O)(=O)c1cc(-c2nnc(O)c3ccccc23)ccc1C [Gr-2A] | YES | YES | YES | YES | 22.7% | 10.8% | 11.4% | YES | 3.05 µM | inhibitors of PARP1; also recorded: PARP inhibitors | YES | – | – | – | –
6 | Oc1nnc(Cc2ccccc2)c2ccccc12 [Gr-2C] | YES | YES | YES | YES | 15.3% | 0.1% | 7.6% | YES | 3.12 µM | inhibitors of PARP1; also recorded: PARP inhibitors | YES | – | – | – | fold induction at 10 µM (FOXO3; [7]): 1.2; fold induction at 10 µM (NRF2; [8]): 1.23
7 | CN1CCC=C(Cc2nnc(O)c3ccccc23)C1 [Gr-2D] | – | – | – | – | – | – | – | – | 3.42 µM | inhibitors of PARP1 | – | – | – | – | –

Source: patent US11413278B2, “Compounds and methods for promoting stress resistance” (priority 2015, dated 2022)
